Common to all, as to assay type: cell-based
One test has as its system SW480 colon cancer cells. Description: Cell viability assay (CellTiter-Blue) in SW480 cells. The settings on record: Homo sapiens, 96 h, four days; for EC50: CellTiter-Blue, 10 μM to 0.0045 μM; for inhibition at 10 µM: read-out: percent inhibition at 10 μM (given for EC50 of >10 μM). In short, it runs like this:
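Approximately 2×10^3 SW480 cells per well are seeded with compound (8 points, threefold steps, top 10 μM) and incubated four days at 37 °C. CellTiter-Blue is then added for about 3 h and fluorescence read. Non-linear regression gives EC50; for values beyond 10 μM, percent inhibition at that concentration is listed.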
A general note: The colour change of resazurin is a common sign of viable cells or microbes.

The subject of test [1] is primary human fibroblasts derived from IPF patients (LL29 cells) treated with TGF-β1. Description: Inhibition of the fibrotic process: αSMA staining in TGF-β1-treated LL29 fibroblasts. To be noted: Fibroblast; for EC50: 96 h, LL29 fibroblasts treated with TGF-β1 (20 ng/mL), 4 days, Table 4. An outline of the steps: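 IPF-derived LL29 fibroblasts in F12 with 1% FBS dosed with compound (11-point, 10 μM to 1.87 nM, 0.1% DMSO), then 20 ng/mL TGF-β1 after 1 h, and cultured 4 days at 37 °C. αSMA-positive cell fraction imaged after excluding SYTOX-positive cells, normalized to TGF-β1/DMSO wells; EC50 by non-linear regression, % inhibition at 10 μM if EC50 >10 μM.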

The test system of a further test is IL-6 (THP-1 cells). Briefly: IL-6 inhibition in LPS-stimulated THP-1 monocytes (HTRF). To be noted: Homo sapiens, IL-6 HTRF; for EC50: 500 ng/mL LPS, Table 6; for inhibition at 10 µM: LPS, Table 6, read-out: percent inhibition at 10 μM (given in parentheses for EC50 >10 μM). An outline of the steps: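 THP-1 cells in 1% FBS pre-incubated 2 h with compound (10-point 1:3 series from 10 μM, 0.1% DMSO), then stimulated with 500 ng/mL LPS for 22 h at 37 °C. IL-6 measured by HTRF 665/620 ratio, normalized to DMSO; EC50 by four-parameter fit, or % inhibition at 10 μM when EC50 >10 μM.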

SMILES strings stand for the structures.

As usually defined, the EC50 is the concentration needed to bring the measured effect to its halfway point. A low value points to greater potency. In general, inhibition refers to the relative decrease from the control value, in per cent. `CCC(=O)Nc1cncc(-c2ccc3[nH]nc(-c4nc5c(-c6cccc(F)c6)cccc5[nH]4)c3n2)c1` [Compound 1, N-(5-(3-(4-(3-Fluorophenyl)-1H-benzo[d]imidazol-2-yl)-1H-pyrazolo[4,3-b]pyridin-5-yl)pyridin-3-yl)propionamide]: the EC50 in the test on SW480 colon cancer cells was 2.74 µM; in test [1] it was 1.18 µM; in the test with IL-6 (THP-1 cells), over 10 µM. Moreover, the inhibition at 10 µM with IL-6 (THP-1 cells) turned out to be 49.2%.
Turning to `CC(C)CC(=O)Nc1cncc(-c2ccc3[nH]nc(-c4nc5c(-c6cccc(F)c6)cccc5[nH]4)c3n2)c1` [Compound 2, N-(5-(3-(4-(3-Fluorophenyl)-1H-benzo[d]imidazol-2-yl)-1H-pyrazolo[4,3-b]pyridin-5-yl)pyridin-3-yl)-3-methylbutanamide], the inhibition at 10 µM in the test on SW480 colon cancer cells turned out to be 14.2%. For the same compound, the values for the EC50 (with SW480 colon cancer cells; in test [1]; in the test on IL-6 (THP-1 cells)) were over 10 µM, 9.86 µM and 6.69 µM, respectively.
On to `CN(C)c1cncc(-c2ccc3[nH]nc(-c4nc5c(-c6cccc(F)c6)cccc5[nH]4)c3n2)c1` [Compound 7, 5-(3-(4-(3-fluorophenyl)-1H-benzo[d]imidazol-2-yl)-1H-pyrazolo[4,3-b]pyridin-5-yl)-N,N-dimethylpyridin-3-amine], for which the 50% effective concentration (EC50) in the test on SW480 colon cancer cells turned out to be 2.77 µM; in test [1], 1.44 µM; in the test with IL-6 (THP-1 cells), 9.5 µM.
The matching figures for `CN(C)Cc1cncc(-c2ccc3[nH]nc(-c4nc5c(-c6cccc(F)c6)cccc5[nH]4)c3n2)c1` [Compound 13, 1-(5-(3-(4-(3-Fluorophenyl)-1H-benzo[d]imidazol-2-yl)-1H-pyrazolo[4,3-b]pyridin-5-yl)pyridin-3-yl)-N,N-dimethylmethanamine]: 0.466 µM, 0.616 µM and 1.37 µM.
With `Fc1cccc(-c2cccc3[nH]c(-c4n[nH]c5ccc(-c6ccncc6)nc45)nc23)c1` [Compound 18, 3-(4-(3-Fluorophenyl)-1H-benzo[d]imidazol-2-yl)-5-(pyridin-4-yl)-1H-pyrazolo[4,3-b]pyridine], the inhibition at 10 µM in the test on SW480 colon cancer cells stood at 0%. For the same compound, the EC50 in the test with SW480 colon cancer cells was over 10 µM; in test [1], 0.231 µM; with IL-6 (THP-1 cells), 3.62 µM.
As to `O=C(Nc1cncc(-c2ccc3[nH]nc(-c4nc5c(-c6cccc(F)c6)cccc5[nH]4)c3n2)c1)C1CC1` [Compound 20, N-(5-(3-(4-(3-Fluorophenyl)-1H-benzo[d]imidazol-2-yl)-1H-pyrazolo[4,3-b]pyridin-5-yl)pyridin-3-yl)cyclopropanecarboxamide], the EC50 with SW480 colon cancer cells was 4.24 µM; in test [1] it was 1.2 µM; in the test on IL-6 (THP-1 cells), over 10 µM. In addition, in the test with IL-6 (THP-1 cells), the inhibition at 10 µM stood at 0%.
Consider `O=C(Nc1cncc(-c2ccc3[nH]nc(-c4nc5c(N6CCCCC6)cccc5[nH]4)c3n2)c1)C1CC1` [Compound 188, N-(5-(3-(4-(Piperidin-1-yl)-1H-benzo[d]imidazol-2-yl)-1H-pyrazolo[4,3-b]pyridin-5-yl)pyridin-3-yl)cyclopropanecarboxamide], for which the EC50 was 4.54 µM in the test with SW480 colon cancer cells, over 10 µM in test [1] and over 10 µM in the test with IL-6 (THP-1 cells). Also, the inhibition at 10 µM in test [1] (10 μM, LL29 fibroblasts treated with TGF-β1, Table 4, read-out: percent inhibition at 10 μM (given in parentheses for EC50 >10 μM)) came out at 49.2%; in the test on IL-6 (THP-1 cells), 0%.
Regarding `FC1(F)CCN(Cc2cncc(-c3ccc4[nH]nc(-c5nc6c(N7CCCCC7)cccc6[nH]5)c4n3)c2)C1` [Compound 194, 5-(5-((3,3-Difluoropyrrolidin-1-yl)methyl)pyridin-3-yl)-3-(4-(piperidin-1-yl)-1H-benzo[d]imidazol-2-yl)-1H-pyrazolo[4,3-b]pyridine], the inhibition at 10 µM in the test with SW480 colon cancer cells turned out to be 25.4%; in the test on IL-6 (THP-1 cells) it was 46.9%. In addition, the EC50 in the test with SW480 colon cancer cells was over 10 µM; in test [1], 6.66 µM; with IL-6 (THP-1 cells) it was over 10 µM.
On to `Cc1cn(-c2cccc3[nH]c(-c4n[nH]c5ccc(-c6cncc(NC(=O)CC(C)C)c6)nc45)nc23)cn1` [Compound 198, 3-Methyl-N-(5-(3-(4-(4-methyl-1H-imidazol-1-yl)-1H-benzo[d]imidazol-2-yl)-1H-pyrazolo[4,3-b]pyridin-5-yl)pyridin-3-yl)butanamide], for which the values for the EC50 (in the test on SW480 colon cancer cells; in test [1]; in the test on IL-6 (THP-1 cells)) were 1.22 µM, 1.89 µM and over 10 µM, respectively. Moreover, the inhibition at 10 µM in the test on IL-6 (THP-1 cells) was determined as 30.8%.

Values taken from US10392383B2, “3-(1H-benzo[d]imidazol-2-yl)-1H-pyrazolo[4,3-b]pyridines and therapeutic uses thereof” (Samumed, LLC, priority 2015, dated 2019).
